In PubChem BioAssay (NCI) one finds GI50 and TGI data, which are given here for 12 molecules.

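Results reflect a 48-hour exposure of cells in 96-well plates to compound at five concentrations. GI50: concentration for 50% inhibition of growth. At the TGI there is no net growth.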 Bounds are passed on as bounds.

The first experiment deals with A498 renal. Kind of experiment: NCI-60 cell line screen, 48 h.
As for `Cc1cc(Cl)nc(N(CCNc2ccnc3cc(Cl)ccc23)Cc2ccco2)n1`, the GI50 was 1740 nM and the TGI turned out to be 5.51 µM.
For `CCCCCCCCCCCC[C@@H](O)[C@H]1CC[C@H]([C@H](O)CC[C@H](O)[C@@H]2CC[C@@H](CCCCCCCC3=C[C@H](C)OC3=O)O2)O1`, the TGI is above 50 µM.
For the molecule `C=CCN(CC=C)C(=O)c1cc(C)nc2c1c(=O)n(-c1ccccc1)c(=O)n2CCCN1CCN(c2ccccc2OC)CC1`, the GI50 was above 50000 nM and the TGI was above 50 µM.
For `CCN(CC)c1ccc2nc3ccc(=[N+](CC)CC)cc-3oc2c1`, in that order: 1010 nM and 17.5 µM.
Regarding `CN1CCN(c2c(F)cc(NC3=C(Cl)C(=O)c4ncccc4C3=O)cc2F)CC1`, the GI50 was 13400 nM and the TGI came out at 29.2 µM.
In the case of `Cc1ccc(S(=O)(=O)NCCCCC(N)C(=O)O)cc1` (centres undefined), the TGI was above 100 µM.
As for `Nc1nccc(-c2c(-c3ccc(F)cc3)nn3cc(C(F)(F)F)ccc23)n1`, the GI50 is above 25000 nM and the TGI was above 25 µM.
For `O=C(O)CN(CCN(CC(=O)O)CC(=O)O)CC(=O)O.[Mn+2]`, in that order: above 100000 nM and above 100 µM.
For `N#CC(C#N)=C/C=C(\Sc1ccc(Cl)cc1)c1ccc(F)cc1`, in that order: 3420 nM and 8.67 µM.
For `CCSCC1CC(O)(c2ccccc2)C(c2ccccc2)C(c2ccc(F)cc2)O1` (centres undefined), in that order: 2150 nM and 3.7 µM.
As for `CCO/C=C1\SC(=S)N(c2ccc(OCC)cc2)C1=O`, the TGI was above 100 µM.
Consider `Nc1nc(=S)c2ncn(C3OC(COP(=O)(O)O)C(O)C3O)c2[nH]1` (centres undefined), for which the GI50 is 631 nM and the TGI stood at 9.24 µM.

The subject of a further experiment is KM12 colon. Kind of experiment: NCI-60 cell line screen, 48 h.
In the case of `Cc1cc(Cl)nc(N(CCNc2ccnc3cc(Cl)ccc23)Cc2ccco2)n1`, the GI50 was 2.01 µM and the TGI turned out to be 4.67 µM.
For `CCCCCCCCCCCC[C@@H](O)[C@H]1CC[C@H]([C@H](O)CC[C@H](O)[C@@H]2CC[C@@H](CCCCCCCC3=C[C@H](C)OC3=O)O2)O1`, in that order: 4.26 µM and above 50 µM.
For `C=CCN(CC=C)C(=O)c1cc(C)nc2c1c(=O)n(-c1ccccc1)c(=O)n2CCCN1CCN(c2ccccc2OC)CC1`, in that order: above 50 µM and above 50 µM.
For `CCN(CC)c1ccc2nc3ccc(=[N+](CC)CC)cc-3oc2c1`, in that order: 0.122 µM and 8.13 µM.
With `CN1CCN(c2c(F)cc(NC3=C(Cl)C(=O)c4ncccc4C3=O)cc2F)CC1`, the GI50 was 16.5 µM and the TGI is 33 µM.
`Cc1ccc(S(=O)(=O)NCCCCC(N)C(=O)O)cc1` (centres undefined) had a TGI above 100 µM.
For the molecule `Nc1nccc(-c2c(-c3ccc(F)cc3)nn3cc(C(F)(F)F)ccc23)n1`, the GI50 is above 25 µM and the TGI was above 25 µM.
In the case of `O=C(O)CN(CCN(CC(=O)O)CC(=O)O)CC(=O)O.[Mn+2]`, the GI50 was above 100 µM and the TGI was above 100 µM.
Consider `N#CC(C#N)=C/C=C(\Sc1ccc(Cl)cc1)c1ccc(F)cc1`, for which the GI50 is 0.87 µM and the TGI was determined as 3.73 µM.
In the case of `CCSCC1CC(O)(c2ccccc2)C(c2ccccc2)C(c2ccc(F)cc2)O1` (centres undefined), the GI50 is 1.9 µM and the TGI is 3.81 µM.
The molecule `CCO/C=C1\SC(=S)N(c2ccc(OCC)cc2)C1=O` came in with a TGI above 100 µM.
With `Nc1nc(=S)c2ncn(C3OC(COP(=O)(O)O)C(O)C3O)c2[nH]1` (centres undefined), the GI50 is 3.02 µM and the TGI is above 100 µM.

The test system of the next experiment is UO-31 renal. Kind of experiment: NCI-60 cell line screen, 48 h.
As for `Cc1cc(Cl)nc(N(CCNc2ccnc3cc(Cl)ccc23)Cc2ccco2)n1`, the GI50 is 1420 nM and the TGI turned out to be 2.93 µM.
For `CCCCCCCCCCCC[C@@H](O)[C@H]1CC[C@H]([C@H](O)CC[C@H](O)[C@@H]2CC[C@@H](CCCCCCCC3=C[C@H](C)OC3=O)O2)O1`, in that order: 2510 nM and above 50 µM.
For `C=CCN(CC=C)C(=O)c1cc(C)nc2c1c(=O)n(-c1ccccc1)c(=O)n2CCCN1CCN(c2ccccc2OC)CC1`, in that order: above 50000 nM and above 50 µM.
As to `CCN(CC)c1ccc2nc3ccc(=[N+](CC)CC)cc-3oc2c1`, the GI50 is 2630 nM and the TGI was found to be 25 µM.
For `CN1CCN(c2c(F)cc(NC3=C(Cl)C(=O)c4ncccc4C3=O)cc2F)CC1`, in that order: 1520 nM and 2.95 µM.
On to `Cc1ccc(S(=O)(=O)NCCCCC(N)C(=O)O)cc1` (centres undefined), for which the TGI was above 100 µM.
With `Nc1nccc(-c2c(-c3ccc(F)cc3)nn3cc(C(F)(F)F)ccc23)n1`, the GI50 was above 25000 nM and the TGI is above 25 µM.
For `O=C(O)CN(CCN(CC(=O)O)CC(=O)O)CC(=O)O.[Mn+2]`, in that order: above 100000 nM and above 100 µM.
For `N#CC(C#N)=C/C=C(\Sc1ccc(Cl)cc1)c1ccc(F)cc1`, in that order: 1850 nM and above 40.3 µM.
`CCSCC1CC(O)(c2ccccc2)C(c2ccccc2)C(c2ccc(F)cc2)O1` (centres undefined): the GI50 was 1710 nM and the TGI stood at 6.46 µM.
Molecule `CCO/C=C1\SC(=S)N(c2ccc(OCC)cc2)C1=O` came in with a TGI above 100 µM.
With `Nc1nc(=S)c2ncn(C3OC(COP(=O)(O)O)C(O)C3O)c2[nH]1` (centres undefined), the GI50 was 1980 nM and the TGI was above 100 µM.

A further experiment has as its system CCRF-CEM leukemia. Kind of experiment: NCI-60 cell line screen, 48 h.
As to `Cc1cc(Cl)nc(N(CCNc2ccnc3cc(Cl)ccc23)Cc2ccco2)n1`, the GI50 is 1920 nM and the TGI was found to be 5.04 µM.
For `CCCCCCCCCCCC[C@@H](O)[C@H]1CC[C@H]([C@H](O)CC[C@H](O)[C@@H]2CC[C@@H](CCCCCCCC3=C[C@H](C)OC3=O)O2)O1`, in that order: 1220 nM and above 50 µM.
For `C=CCN(CC=C)C(=O)c1cc(C)nc2c1c(=O)n(-c1ccccc1)c(=O)n2CCCN1CCN(c2ccccc2OC)CC1`, in that order: above 50000 nM and above 50 µM.
As for `CCN(CC)c1ccc2nc3ccc(=[N+](CC)CC)cc-3oc2c1`, the GI50 is 97.3 nM and the TGI is above 100 µM.
For `CN1CCN(c2c(F)cc(NC3=C(Cl)C(=O)c4ncccc4C3=O)cc2F)CC1`, in that order: 2240 nM and 22 µM.
`Cc1ccc(S(=O)(=O)NCCCCC(N)C(=O)O)cc1` (centres undefined) had a TGI above 100 µM.
With `Nc1nccc(-c2c(-c3ccc(F)cc3)nn3cc(C(F)(F)F)ccc23)n1`, the GI50 is above 25000 nM and the TGI is above 25 µM.
In the case of `O=C(O)CN(CCN(CC(=O)O)CC(=O)O)CC(=O)O.[Mn+2]`, the GI50 is above 100000 nM and the TGI is above 100 µM.
Turning to `N#CC(C#N)=C/C=C(\Sc1ccc(Cl)cc1)c1ccc(F)cc1`, the GI50 was 17.7 nM and the TGI was above 100 µM.
For `CCSCC1CC(O)(c2ccccc2)C(c2ccccc2)C(c2ccc(F)cc2)O1` (centres undefined), in that order: 3150 nM and 32.1 µM.
With `CCO/C=C1\SC(=S)N(c2ccc(OCC)cc2)C1=O`, the TGI is above 100 µM.
In the case of `Nc1nc(=S)c2ncn(C3OC(COP(=O)(O)O)C(O)C3O)c2[nH]1` (centres undefined), the GI50 was 406 nM and the TGI was above 100 µM.

The test system of the next experiment is T-47D breast. Kind of experiment: NCI-60 cell line screen, 48 h.
Take `Cc1cc(Cl)nc(N(CCNc2ccnc3cc(Cl)ccc23)Cc2ccco2)n1`: the GI50 was 1660 nM and the TGI was found to be 3.61 µM.
For `CCCCCCCCCCCC[C@@H](O)[C@H]1CC[C@H]([C@H](O)CC[C@H](O)[C@@H]2CC[C@@H](CCCCCCCC3=C[C@H](C)OC3=O)O2)O1`, in that order: 4450 nM and above 50 µM.
With `C=CCN(CC=C)C(=O)c1cc(C)nc2c1c(=O)n(-c1ccccc1)c(=O)n2CCCN1CCN(c2ccccc2OC)CC1`, the GI50 was above 50000 nM and the TGI was above 50 µM.
For `CCN(CC)c1ccc2nc3ccc(=[N+](CC)CC)cc-3oc2c1`, in that order: 105 nM and 1.18 µM.
For `CN1CCN(c2c(F)cc(NC3=C(Cl)C(=O)c4ncccc4C3=O)cc2F)CC1`, in that order: 1950 nM and 5.04 µM.
In turn, `Cc1ccc(S(=O)(=O)NCCCCC(N)C(=O)O)cc1` (centres undefined) displayed a TGI above 100 µM.
Turning to `Nc1nccc(-c2c(-c3ccc(F)cc3)nn3cc(C(F)(F)F)ccc23)n1`, the GI50 was above 25000 nM and the TGI is above 25 µM.
For `O=C(O)CN(CCN(CC(=O)O)CC(=O)O)CC(=O)O.[Mn+2]`, in that order: above 100000 nM and above 100 µM.
For `N#CC(C#N)=C/C=C(\Sc1ccc(Cl)cc1)c1ccc(F)cc1`, in that order: 13300 nM and above 71.6 µM.
As to `CCSCC1CC(O)(c2ccccc2)C(c2ccccc2)C(c2ccc(F)cc2)O1` (centres undefined), the GI50 is 1560 nM and the TGI amounted to 4.8 µM.
`CCO/C=C1\SC(=S)N(c2ccc(OCC)cc2)C1=O` displayed a TGI above 100 µM.
For the molecule `Nc1nc(=S)c2ncn(C3OC(COP(=O)(O)O)C(O)C3O)c2[nH]1` (centres undefined), the GI50 was 541 nM and the TGI was above 100 µM.
